According to patent US5006650A, “Novel N-1 substituted beta-lactams as antibiotics” (The Upjohn Company, priority 1989, dated 1991):
≈ marks a conversion by molar mass, not a printed value.

Assays:
Test in all cases: MIC, agar dilution in Mueller Hinton Agar
Type in all cases: cell-based
[1] = test system: Streptococcus Pneumoniae 41; settings: culture 41, MHA, 35° C., 20 hours, read-out: Minimum Inhibitory Concentration
Method: (§1) The compounds of this invention and their respective pharmacologically acceptable salts have antibiotic activity against a variety of gram-negative bacteria including Escherichia coli, Klebsiella pneumoniae, and Pseudomonas aeruginosa. The compounds are useful for treating bacterial infections in animals, including and most preferably humans. Compounds of the invention are tested for in vitro antimicrobial activity using standard testing procedures such as the determination of minimum inhibitory concentration (MIC) by methods described in "Methods for Dilution Antimicrobial Susceptibility Tests for Bacteria That Grow Aerobically" (M7-A) Published December 1985 by the National Committee for Clinical Laboratory Standards, 771 East Lancaster Avenue, Villanova, Pa. 19084. Briefly, MIC values are determined in unsupplemented Mueller Hinton Agar (MHA). The compounds tested are diluted serially into molten MHA at 47 C. The agar is poured into petri dishes and allowed to harden. The various bacteria used for testing are grown overnight on MHA at 35 C. and transferred to Tryptiease Soy Broth (TSB) until a turbidity of 0.5 McFarland standard is obtained. The bacteria are diluted one to twenty in TSB and inoculated on the plates (1 μl using a Steers replicator).

Klebsiella Oxytoca 9384 = settings: OXYTOCA9384, culture 9384, MHA, 35° C., 20 hours, read-out: Minimum Inhibitory Concentration
Method: as §1

Escherichia Coli 9380 = settings: COLI9380, culture 9380, MHA, 35° C., 20 hours, read-out: Minimum Inhibitory Concentration
Method: as §1

[2] = test system: Streptococcus Pyogenes 152; settings: culture 152, MHA, 35° C., 20 hours, read-out: Minimum Inhibitory Concentration
Method: as §1

Escherichia Coli 9451 = settings: COLI9451, culture 9451, MHA, 35° C., 20 hours, read-out: Minimum Inhibitory Concentration
Method: as §1

[3] = test system: Staphylococcus Aureus 3665; settings: AUREUS3665, culture 3665, MHA, 35° C., 20 hours, read-out: Minimum Inhibitory Concentration
Method: as §1

[4] = test system: Staphylococcus Aureus 9218; settings: AUREUS9218, culture 9218, MHA, 35° C., 20 hours, read-out: Minimum Inhibitory Concentration
Method: as §1

Proteus Vulgaris 9679 = settings: culture 9679, MHA, 35° C., 20 hours, read-out: Minimum Inhibitory Concentration
Method: as §1

[5] = test system: Enterobacter Cloacae 9382; settings: CLOACAE9382, culture 9382, MHA, 35° C., 20 hours, read-out: Minimum Inhibitory Concentration
Method: as §1

[6] = test system: Staphylococcus Aursus 6685; settings: AURSUS6685, culture 6685, MHA, 35° C., 20 hours, read-out: Minimum Inhibitory Concentration
Method: as §1

Serratia Marcescens 6888 = settings: culture 6888, MHA, 35° C., 20 hours, read-out: Minimum Inhibitory Concentration
Method: as §1

Klebsiella Pneumoniae 58 = settings: culture 58, MHA, 35° C., 20 hours, read-out: Minimum Inhibitory Concentration
Method: as §1

[7] = test system: Pseudomonas Aeruginosa 231; settings: culture 231, MHA, 35° C., 20 hours, read-out: Minimum Inhibitory Concentration
Method: as §1

Klebsiella Oxytoca 9383 = settings: OXYTOCA9383, culture 9383, MHA, 35° C., 20 hours, read-out: Minimum Inhibitory Concentration
Method: as §1

[8] = test system: Citrobacter Freundli 3507; settings: culture 3507, MHA, 35° C., 20 hours, read-out: Minimum Inhibitory Concentration
Method: as §1

[9] = test system: Streptococcus Faecalis 694; settings: Enterococcus faecalis, culture 694, MHA, 35° C., 20 hours, read-out: Minimum Inhibitory Concentration
Method: as §1

Escherichia Coli 9379 = settings: COLI9379, culture 9379, MHA, 35° C., 20 hours, read-out: Minimum Inhibitory Concentration
Method: as §1

[10] = test system: Pseudomonas Aeruginosa 9191; settings: culture 9191, MHA, 35° C., 20 hours, read-out: Minimum Inhibitory Concentration
Method: as §1

[11] = test system: Enterobacter Cloacae 9381; settings: CLOACAE9381, culture 9381, MHA, 35° C., 20 hours, read-out: Minimum Inhibitory Concentration
Method: as §1

MIC [1] [µg/mL]	MIC (Klebsiella Oxytoca 9384) [µg/mL]	MIC (Escherichia Coli 9380) [µg/mL]	MIC [2] [µg/mL]	MIC (Escherichia Coli 9451) [µg/mL]	MIC [3] [µg/mL]	MIC [4] [µg/mL]	MIC (Proteus Vulgaris 9679) [µg/mL]	MIC [5] [µg/mL]	MIC [6] [µg/mL]	MIC (Serratia Marcescens 6888) [µg/mL]	MIC (Klebsiella Pneumoniae 58) [µg/mL]	MIC [7] [µg/mL]	MIC (Klebsiella Oxytoca 9383) [µg/mL]	MIC [8] [µg/mL]	MIC [9] [µg/mL]	MIC (Escherichia Coli 9379) [µg/mL]	MIC [10] [µg/mL]	MIC [11] [µg/mL]	Compound
128 (≈ 187 µM)	0.06 (≈ 0.0878 µM)	> 0.015	16 (≈ 23.4 µM)	> 0.015	> 128	> 128	0.03 (≈ 0.0439 µM)	0.5 (≈ 0.731 µM)	> 128	0.03 (≈ 0.0439 µM)	0.25 (≈ 0.366 µM)	0.125 (≈ 0.183 µM)	0.125 (≈ 0.183 µM)	0.06 (≈ 0.0878 µM)	> 128	> 0.015	0.25 (≈ 0.366 µM)	16 (≈ 23.4 µM)	CC(C)(ON=C(C(=O)NC1CN(C(=O)NS(=O)(=O)n2ncn(NC(=O)c3cc(=O)c(O)c[nH]3)c2=O)C1=O)c1csc(N)n1)C(=O)O (centres unmarked) [Compound U-77938]
64 (≈ 97.6 µM)	0.03 (≈ 0.0458 µM)	> 0.008	32 (≈ 48.8 µM)	0.015 (≈ 0.0229 µM)	> 64	> 64	0.125 (≈ 0.191 µM)	0.25 (≈ 0.381 µM)	> 64	0.03 (≈ 0.0458 µM)	0.25 (≈ 0.381 µM)	2 (≈ 3.05 µM)	0.25 (≈ 0.381 µM)	0.06 (≈ 0.0915 µM)	> 64	> 0.008	2 (≈ 3.05 µM)	16 (≈ 24.4 µM)	Nc1nc(C(=NOCC(=O)O)C(=O)N[C@H]2CN(C(=O)NS(=O)(=O)n3ncn(NC(=O)c4cc(=O)c(O)c[nH]4)c3=O)C2=O)cs1 [Compound U-78284]
